Experiments:
[1] = target: DNA (cytosine-5)-methyltransferase 1 (Homo sapiens, UniProt P26358); test: Inhibition of human recombinant DNMT1 expressed in baculovirus-insect cell system by scintillation counting
[2] = target: DNA (cytosine-5)-methyltransferase 3B (Homo sapiens, UniProt Q9UBC3); test: Inhibition of human recombinant DNMT3B expressed in baculovirus-insect cell system by scintillation counting

Sequence of DNA (cytosine-5)-methyltransferase 1 (P26358 whole entry): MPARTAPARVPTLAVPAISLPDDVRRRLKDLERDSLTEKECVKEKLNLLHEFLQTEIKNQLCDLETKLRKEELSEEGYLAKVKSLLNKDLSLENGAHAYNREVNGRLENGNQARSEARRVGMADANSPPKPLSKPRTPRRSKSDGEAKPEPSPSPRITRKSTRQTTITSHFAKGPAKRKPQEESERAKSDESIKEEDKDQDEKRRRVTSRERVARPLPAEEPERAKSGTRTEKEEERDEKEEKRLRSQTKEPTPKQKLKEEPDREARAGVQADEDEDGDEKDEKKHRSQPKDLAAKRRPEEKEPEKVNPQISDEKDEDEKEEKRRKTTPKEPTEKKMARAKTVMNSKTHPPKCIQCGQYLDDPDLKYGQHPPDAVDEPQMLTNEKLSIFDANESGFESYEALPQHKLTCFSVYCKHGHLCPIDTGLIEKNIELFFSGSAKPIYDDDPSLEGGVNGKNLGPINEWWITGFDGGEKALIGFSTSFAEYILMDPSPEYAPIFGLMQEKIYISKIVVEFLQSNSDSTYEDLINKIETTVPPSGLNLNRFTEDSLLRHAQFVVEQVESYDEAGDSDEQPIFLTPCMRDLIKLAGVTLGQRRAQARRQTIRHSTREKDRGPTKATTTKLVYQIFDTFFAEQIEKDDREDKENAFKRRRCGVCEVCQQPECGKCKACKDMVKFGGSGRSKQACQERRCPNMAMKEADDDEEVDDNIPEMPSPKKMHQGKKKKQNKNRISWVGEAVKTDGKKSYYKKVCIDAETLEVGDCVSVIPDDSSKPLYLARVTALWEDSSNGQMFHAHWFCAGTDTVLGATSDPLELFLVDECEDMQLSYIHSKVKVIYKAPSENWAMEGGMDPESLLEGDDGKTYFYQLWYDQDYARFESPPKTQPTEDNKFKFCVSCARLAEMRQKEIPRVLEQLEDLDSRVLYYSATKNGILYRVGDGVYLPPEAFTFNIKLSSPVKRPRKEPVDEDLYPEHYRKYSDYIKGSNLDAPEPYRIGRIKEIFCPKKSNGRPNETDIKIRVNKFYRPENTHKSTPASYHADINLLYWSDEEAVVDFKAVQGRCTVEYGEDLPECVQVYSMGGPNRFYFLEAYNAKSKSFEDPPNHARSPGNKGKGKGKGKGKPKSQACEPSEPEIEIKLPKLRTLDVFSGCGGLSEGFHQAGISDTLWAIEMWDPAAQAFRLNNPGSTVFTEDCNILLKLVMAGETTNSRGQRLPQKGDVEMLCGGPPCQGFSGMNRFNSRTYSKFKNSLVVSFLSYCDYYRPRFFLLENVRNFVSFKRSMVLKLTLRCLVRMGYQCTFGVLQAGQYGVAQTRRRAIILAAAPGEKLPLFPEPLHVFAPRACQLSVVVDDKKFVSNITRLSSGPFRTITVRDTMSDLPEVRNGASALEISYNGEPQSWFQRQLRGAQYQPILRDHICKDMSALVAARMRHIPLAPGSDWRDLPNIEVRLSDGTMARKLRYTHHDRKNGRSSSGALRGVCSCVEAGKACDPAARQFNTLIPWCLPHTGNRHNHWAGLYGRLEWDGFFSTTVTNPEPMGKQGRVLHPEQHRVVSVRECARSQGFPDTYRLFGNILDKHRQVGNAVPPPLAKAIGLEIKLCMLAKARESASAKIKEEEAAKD

Row | Structure (SMILES) | IC50 ([1]; read-out: IC50) [µM] | IC50 [2] | IC50 ([2]; read-out: IC50) [µM] | IC50 [1]
1 | O=C(O)COc1ccc(C(=O)c2cc(Br)ccc2OCC(=O)O)cc1 | 212 | Not Active | – | –
2 | Nc1ncnc2c1ncn2[C@@H]1O[C@H](CSCC[C@H](N)C(=O)O)[C@@H](O)[C@H]1O [S-ADENOSYLHOMOCYSTEINE] | – | – | 0.25 | –
3 | O=C(O)CCCC(C(=O)O)N1C(=O)c2ccccc2C1=O (stereo not given) | – | Not Active | – | Not Active

From ChEMBL document CHEMBL1157722, “Novel and selective DNA methyltransferase inhibitors: Docking-based virtual screening and experimental evaluation” (Bioorg Med Chem, 2010)
